The values that follow come from ChEMBL document CHEMBL1145699, “Bioactive Terpenoids from Octocorallia. 3. A New Eunicellin-Based Diterpenoid from the Soft Coral Cladiella sphaeroides” (J Nat Prod, 1997).

In the data set the test system is Artemia salina. Briefly: Toxicity against Artemia salina at 30 ppm. The settings on record: in vivo. Type of data set: organism-based.

For the molecule `C=C1CC[C@H](C(C)C)[C@@H]2[C@H]1[C@@H]1CC(=C)[C@@H](O)CC[C@](C)(O)[C@H]2O1` [CLADIELLISIN], the Activity result was “Not Active”.
